What was measured:
Format in all cases: functional
Hepatocyte [1] = experiment: Inhibition of D-galactosamine/TNFalpha-induced cell death in ddY mouse hepatocytes at 1 uM after 20 hrs by MTT assay
Hepatocyte [2] = experiment: Inhibition of D-galactosamine/TNFalpha-induced cell death in ddY mouse hepatocytes at 3 uM after 20 hrs by MTT assay
Hepatocyte [3] = experiment: Inhibition of D-galactosamine/TNFalpha-induced cell death in ddY mouse hepatocytes at 10 uM after 20 hrs by MTT assay
Hepatocyte [4] = experiment: Inhibition of D-galactosamine/TNFalpha-induced cell death in ddY mouse hepatocytes at 30 uM after 20 hrs by MTT assay
Hepatocyte [5] = experiment: Inhibition of D-galactosamine/TNFalpha-induced cell death in ddY mouse hepatocytes assessed as cell viability at 30 uM after 20 hrs by MTT assay; conditions: read-out: Activity
Hepatocyte [6] = experiment: Inhibition of D-galactosamine/TNFalpha-induced cell death in ddY mouse hepatocytes assessed as cell viability at 100 uM after 20 hrs by MTT assay; conditions: read-out: Activity
Hepatocyte [7] = experiment: Inhibition of D-galactosamine-induced cell death in ddY mouse hepatocytes assessed as cell viability at 10 uM after 44 hrs by MTT assay; conditions: read-out: Activity
Hepatocyte [8] = experiment: Inhibition of D-galactosamine-induced cell death in ddY mouse hepatocytes assessed as cell viability at 30 uM after 44 hrs by MTT assay; conditions: read-out: Activity
Hepatocyte [9] = experiment: Inhibition of D-galactosamine-induced cell death in ddY mouse hepatocytes assessed as cell viability at 100 uM after 44 hrs by MTT assay; conditions: read-out: Activity
L929 [10] = experiment: Inhibition of TNF-alpha-induced cell death in […] assessed as cell viability at 10 uM after 20 hrs by MTT assay; conditions: L929, 20 h, read-out: Activity
L929 [11] = experiment: Inhibition of TNF-alpha-induced cell death in […] assessed as cell viability at 30 uM after 20 hrs by MTT assay; conditions: L929, 20 h, read-out: Activity
L929 [12] = experiment: Inhibition of TNF-alpha-induced cell death in […] assessed as cell viability at 100 uM after 20 hrs by MTT assay; conditions: L929, 20 h, read-out: Activity
Mus musculus [13] = experiment: Inhibition of D-galactosamine/LPS-induced liver injury in ddY mouse assessed as serum GOT level at 2.5 mg/kg, po
Mus musculus [14] = experiment: Inhibition of D-galactosamine/LPS-induced liver injury in ddY mouse assessed as serum GOT level at 5 mg/kg, po
Mus musculus [15] = experiment: Inhibition of D-galactosamine/LPS-induced liver injury in ddY mouse assessed as serum GOT level at 10 mg/kg, po
Mus musculus [16] = experiment: Inhibition of D-galactosamine/LPS-induced liver injury in ddY mouse assessed as serum GPT level at 2.5 mg/kg, po
Mus musculus [17] = experiment: Inhibition of D-galactosamine/LPS-induced liver injury in ddY mouse assessed as serum GPT level at 5 mg/kg, po
Mus musculus [18] = experiment: Inhibition of D-galactosamine/LPS-induced liver injury in ddY mouse assessed as serum GPT level at 10 mg/kg, po
Mus musculus [19] = experiment: Inhibition of D-galactosamine/LPS-induced TNFalpha level in ddY mouse serum at 5 mg/kg, po by ELISA
Mus musculus [20] = experiment: Inhibition of D-galactosamine/LPS-induced TNFalpha level in ddY mouse serum at 10 mg/kg, po by ELISA
Mus musculus [21] = experiment: Inhibition of D-galactosamine/LPS-induced TNFalpha level in ddY mouse serum at 20 mg/kg, po by ELISA
Hepatocyte [22] = experiment: Inhibition of D-galactosamine/TNFalpha-induced cell death in ddY mouse hepatocytes assessed as cell viability at 10 uM after 20 hrs by MTT assay; conditions: read-out: Activity

Compound	inhibition at 1 µM (Hepatocyte [1])	inhibition at 3 µM (Hepatocyte [2])	inhibition at 10 µM (Hepatocyte [3])	inhibition at 30 µM (Hepatocyte [4])	further results
CC(C)CNC(=O)/C=C/C=C/CCCC/C=C/c1ccc2c(c1)OCO2 [RETROFRACTAMIDE B]	32%	54%	51%	26%	–
CC(C)CNC(=O)/C=C/C=C/CC/C=C/c1ccc2c(c1)OCO2 [RETROFRACTAMIDE A]	40%	32%	35%	60%	–
O=C(/C=C/C=C/CCCCCC/C=C/c1ccc2c(c1)OCO2)N1CCCCC1 [PIPERCHABAMIDE C]	–	42%	52%	68%	–
CCCCC/C=C\CCCCCCCC/C=C/C=C/C(=O)NCC(C)C	10%	3%	19%	27%	–
O=C(CCCCCC/C=C/c1ccc2c(c1)OCO2)N1CCCCC1 [PIPERROLEIN B]	20%	29%	33%	64%	–
CC(C)CNC(=O)/C=C/CCc1ccc2c(c1)OCO2 [4,5-DIHYDROPIPERLONGUMININE]	34%	43%	43%	66%	–
CCCCCCC/C=C/C=C/C(=O)NCC(C)C	12%	21%	31%	44%	–
CC(C)CNC(=O)/C=C/CCCC/C=C/c1ccc2c(c1)OCO2 [RETROFRACTAMIDE C]	30%	51%	31%	37%	–
O=C(/C=C/CCc1ccc2c(c1)OCO2)N1CCCCC1 [PIPERANINE]	–	31%	50%	53%	–
O=C(/C=C/C=C/c1ccc2c(c1)OCO2)N1CCCCC1 [PIPERINE]	–	23%	46%	68%	viability at 30 µM (Hepatocyte [5]): 76.1%; viability at 100 µM (Hepatocyte [6]): 84.3%; viability at 10 µM (Hepatocyte [7]): 40.6%; viability at 30 µM (Hepatocyte [8]): 36.5%; viability at 100 µM (Hepatocyte [9]): 29.2%; viability at 10 µM (L929 [10]): 64%; viability at 30 µM (L929 [11]): 66.2%; viability at 100 µM (L929 [12]): 92.2%; inhibition in vivo at 2.5 mg/kg (Mus musculus [13]): 0.3%; inhibition in vivo at 5 mg/kg (Mus musculus [14]): 50.7%; inhibition in vivo at 10 mg/kg (Mus musculus [15]): 96.1%; inhibition in vivo at 2.5 mg/kg (Mus musculus [16]): 23.2%; inhibition in vivo at 5 mg/kg (Mus musculus [17]): 51.1%; inhibition in vivo at 10 mg/kg (Mus musculus [18]): 94.3%; inhibition in vivo at 5 mg/kg (Mus musculus [19]): 15.7%; inhibition in vivo at 10 mg/kg (Mus musculus [20]): 9.2%; inhibition in vivo at 20 mg/kg (Mus musculus [21]): -2.2%; viability at 10 µM (Hepatocyte [22]): 72.4%
O=C(/C=C/CCCCCC/C=C/c1ccc2c(c1)OCO2)N1CCCCC1 [PIPERCHABAMIDE B]	–	63%	74%	78%	–
CC(C)CNC(=O)/C=C/C=C/CCCCCCCC/C=C/c1ccc2c(c1)OCO2 [BRACHYSTAMIDE B]	–	22%	11%	-6%	–
O=C(/C=C/CCCC/C=C/c1ccc2c(c1)OCO2)N1CCCCC1 [PIPERNONALINE]	–	17%	31%	48%	–
C[C@]12CCC(=O)C=C1CC[C@@H]1[C@@H]2[C@@H](O)C[C@@]2(C)[C@H]1CC[C@]2(O)C(=O)CO [HYDROCORTISONE]	–	–	–	–	inhibition in vivo at 10 mg/kg (Mus musculus [15]): 94.2%; inhibition in vivo at 10 mg/kg (Mus musculus [18]): 97.7%; inhibition in vivo at 10 mg/kg (Mus musculus [20]): 92.1%
CCC(C)CNC(=O)/C=C/C=C/c1ccc2c(c1)OCO2 (stereo not given) [PIPERCHABAMIDE E]	–	34%	71%	98%	–
O=C1C=CCCN1C(=O)CCc1ccccc1 [PIPERCHABAMIDE A]	–	29%	32%	70%	–
CC(C)CNC(=O)/C=C/CCCCCC/C=C/c1ccc2c(c1)OCO2 [PIPERCHABAMIDE D]	–	57%	77%	37%	–
CC(C)CNC(=O)/C=C/C=C/c1ccc2c(c1)OCO2 [PIPERLONGUMININE]	27%	50%	54%	66%	–
COC(=O)/C=C/C=C/c1ccc2c(c1)OCO2 [METHYL PIPERATE]	–	18%	29%	21%	–
O=Cc1ccc2c(c1)OCO2 [PIPERONAL]	–	20%	23%	39%	–
CCCCC/C=C/C=C/C(=O)NCC(C)C [PELLITORIN]	–	19%	25%	42%	–
CC(C)CNC(=O)/C=C/C=C/CCCCCC/C=C/c1ccc2c(c1)OCO2 [GUINEENSINE]	–	26%	33%	12%	–
CCCCCCCCCCCCC/C=C/C=C/C(=O)NCC(C)C	15%	37%	41%	43%	–
O=C(/C=C/C=C/CCCC/C=C/c1ccc2c(c1)OCO2)N1CCCCC1 [PIPERUNDECALIDIENE]	27%	40%	49%	58%	–

Source: ChEMBL document CHEMBL1141654, “Protective effects of amide constituents from the fruit of Piper chaba on D-galactosamine/TNF-alpha-induced cell death in mouse hepatocytes” (2008)
